Data on 17 compounds can be found in patent US10829473B2, “Modulators of the cystic fibrosis transmembrane conductance regulator protein and methods of use” (AbbVie Overseas S.Á.R.L., priority 2017, dated 2020).

pEC50: −log10 of the molar value. Read-outs that look alike come from different tables or passages of the source. Where only a bound is given, the exact number is not on record here.

The assay has as its target T1, F508delCFTR (Homo sapiens, UniProt P13569, DEL508-508).
T1 construct: expressed in transfected cells; host or cells: CFBE41o- human lung derived epithelial cells (CFBE41o-F508delCFTR-HRP), doxycycline-inducible
The assay is described as follows: Cell Surface Expression-Horse Radish Peroxidase (CSE-HRP) Assay.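 On EC50 (with co-corrector): co-corrector chromenyl benzoic acid corrector at 2 or 3 µM.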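 On Maximum % activity (without co-corrector): % of on-plate positive control chromenyl benzoic acid corrector at 2 or 3 µM.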 Type of assay: cell-based. To be noted: for Maximum % activity (with co-corrector) / Emax: maximum at any tested concentration; for Emax: read-out: Maximum % activity (without co-corrector). The gist of the method: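 Corrector compounds were given as 8-point 3-fold series from 20 or 30 μM, with or without a 2 μM co-corrector, for 18-24 h at 33 °C. Surface HRP was read by luminol luminescence as % of positive control; variable-Hill-slope sigmoidal fitting gave EC50 from triplicate plates.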

Setting [1] is: test compound alone, without co-corrector, read-out: EC50 (without co-corrector).
Setting [2] is: with co-corrector, read-out: EC50 (with co-corrector).

The pEC50 is the EC50 on a negative log10 scale, so that one unit is a factor of ten.

T1 sequence (P13569 with tags, fused parts or gaps DEL508-508): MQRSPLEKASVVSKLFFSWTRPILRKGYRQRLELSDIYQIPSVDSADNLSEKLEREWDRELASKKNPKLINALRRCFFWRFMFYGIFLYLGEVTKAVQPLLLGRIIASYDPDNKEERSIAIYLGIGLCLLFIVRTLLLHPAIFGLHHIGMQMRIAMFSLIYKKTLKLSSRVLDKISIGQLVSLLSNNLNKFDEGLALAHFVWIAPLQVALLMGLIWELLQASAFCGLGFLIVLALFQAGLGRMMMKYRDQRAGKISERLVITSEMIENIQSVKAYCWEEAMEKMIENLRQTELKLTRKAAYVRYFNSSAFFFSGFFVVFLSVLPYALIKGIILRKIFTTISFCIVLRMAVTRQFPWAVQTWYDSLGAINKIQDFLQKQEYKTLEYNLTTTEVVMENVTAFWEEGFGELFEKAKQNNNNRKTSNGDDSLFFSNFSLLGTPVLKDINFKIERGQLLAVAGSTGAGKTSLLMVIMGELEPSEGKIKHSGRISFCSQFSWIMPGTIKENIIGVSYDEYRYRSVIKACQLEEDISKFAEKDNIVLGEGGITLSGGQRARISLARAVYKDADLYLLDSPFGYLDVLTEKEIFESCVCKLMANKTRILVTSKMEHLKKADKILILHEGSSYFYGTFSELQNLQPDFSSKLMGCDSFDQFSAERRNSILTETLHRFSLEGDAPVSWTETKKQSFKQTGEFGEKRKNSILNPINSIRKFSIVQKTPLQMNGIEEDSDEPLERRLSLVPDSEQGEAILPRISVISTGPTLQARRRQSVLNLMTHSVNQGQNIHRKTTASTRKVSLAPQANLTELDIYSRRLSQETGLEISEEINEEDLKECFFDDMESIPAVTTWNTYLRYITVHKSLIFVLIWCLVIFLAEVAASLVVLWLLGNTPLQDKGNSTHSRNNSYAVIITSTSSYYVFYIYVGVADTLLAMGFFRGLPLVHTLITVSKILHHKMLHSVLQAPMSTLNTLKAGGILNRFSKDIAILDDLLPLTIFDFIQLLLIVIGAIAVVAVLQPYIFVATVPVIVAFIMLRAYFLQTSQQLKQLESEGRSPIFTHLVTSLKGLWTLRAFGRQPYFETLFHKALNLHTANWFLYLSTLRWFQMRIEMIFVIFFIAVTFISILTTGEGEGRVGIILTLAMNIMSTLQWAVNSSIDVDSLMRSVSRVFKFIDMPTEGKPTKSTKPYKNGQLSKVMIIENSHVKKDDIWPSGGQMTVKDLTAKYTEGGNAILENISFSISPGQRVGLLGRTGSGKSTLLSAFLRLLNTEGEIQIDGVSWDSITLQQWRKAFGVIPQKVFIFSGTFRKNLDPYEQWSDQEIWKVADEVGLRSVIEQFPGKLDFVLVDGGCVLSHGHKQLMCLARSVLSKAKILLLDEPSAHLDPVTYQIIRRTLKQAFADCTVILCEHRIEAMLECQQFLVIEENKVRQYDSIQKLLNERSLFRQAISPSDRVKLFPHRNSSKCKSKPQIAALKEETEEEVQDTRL

On to `COc1ccc(C)cc1C1(C(=O)NS(=O)(=O)c2cccc3ncccc23)CC1` [Example I-44, 1-(2-methoxy-5-methylphenyl)-N-(quinoline-5-sulfonyl)cyclopropane-1-carboxamide], for which the pEC50 reads like this: under setting [1], above 5.52; under setting [2], above 5.52. In addition, where the note is “with co-corrector”, the “Maximum % activity (with co-corrector)” value is recorded as “+++ (≥350)”. Further, the Emax (without co-corrector) is above 150%.

As to `CCOc1cccc(OC)c1C1(C(=O)NS(=O)(=O)c2cccc3ncccc23)CC1` [Example I-45, 1-(2-ethoxy-6-methoxyphenyl)-N-(quinoline-5-sulfonyl)cyclopropane-1-carboxamide], the pEC50 under setting [1] was above 5.52 and the pEC50 under setting [2] is above 5.52. Besides, the “Maximum % activity (with co-corrector)” value (with co-corrector) is “+++ (≥350)”. The Emax (without co-corrector) is above 150%.

Turning to `COc1cccc(OCC2CC2)c1C1(C(=O)NS(=O)(=O)c2cccc3ncccc23)CC1` [Example I-46, 1-[2-(cyclopropylmethoxy)-6-methoxyphenyl]-N-(quinoline-5-sulfonyl)cyclopropane-1-carboxamide], the pEC50 runs as follows: under setting [1], above 5.52; under setting [2], above 5.52. For the same compound, the “Maximum % activity (with co-corrector)” value (with co-corrector) is “+++ (≥350)”. Further, the Emax (without co-corrector) is above 150%.

For the compound `COc1ccc(C)c(C)c1C1(C(=O)NS(=O)(=O)c2cccc3ncccc23)CC1` [Example I-47, 1-(6-methoxy-2,3-dimethylphenyl)-N-(quinoline-5-sulfonyl)cyclopropane-1-carboxamide], the pEC50 by setting is: under setting [1], above 5.52; under setting [2], above 5.52. In addition, the “Maximum % activity (with co-corrector)” value (with co-corrector) is reported as “+++ (≥350)”. Further, the Emax (without co-corrector) was above 150%.

In the case of `COc1ccc(C2CC2)c(C)c1C1(C(=O)NS(=O)(=O)c2cccc3ncccc23)CC1` [Example I-48, 1-(3-cyclopropyl-6-methoxy-2-methylphenyl)-N-(quinoline-5-sulfonyl)cyclopropane-1-carboxamide], the pEC50 is above 5.52 under setting [1] and above 5.52 under setting [2]. The “Maximum % activity (with co-corrector)” value (with co-corrector) is “+++ (≥350)”. Also, the Emax (without co-corrector) was above 150%.

Take `COc1ccc(C)cc1C1(C(=O)NS(=O)(=O)c2cccc3[nH]ccc23)CC1` [Example I-49, N-(1H-indole-4-sulfonyl)-1-(2-methoxy-5-methylphenyl)cyclopropane-1-carboxamide]: the negative logarithm of the EC50 (pEC50) is, setting by setting: under setting [1], above 5.52; under setting [2], above 5.52. The “Maximum % activity (with co-corrector)” value (with co-corrector) is given as “+++ (≥350)”. Moreover, the Emax (without co-corrector) is above 150%.

As for `COc1cccc(C(C)C)c1C1(C(=O)NS(=O)(=O)c2cccc3ncccc23)CC1` [Example I-50, 1-[2-methoxy-6-(propan-2-yl)phenyl]-N-(quinoline-5-sulfonyl)cyclopropane-1-carboxamide], the pEC50 reads like this: under setting [1], above 5.52; under setting [2], above 5.52. Also, the “Maximum % activity (with co-corrector)” value (with co-corrector) is given as “+++ (≥350)”. Moreover, for the setting “without co-corrector”, the Emax was above 150%.

Turning to `COc1cccc(C2CCC2)c1C1(C(=O)NS(=O)(=O)c2cccc3ncccc23)CC1` [Example I-51, 1-(2-cyclobutyl-6-methoxyphenyl)-N-(quinoline-5-sulfonyl)cyclopropane-1-carboxamide], the pEC50 by setting is: under setting [1], above 5.52; under setting [2], above 5.52. The “Maximum % activity (with co-corrector)” value (with co-corrector) is reported as “+++ (≥350)”. For the same compound, the Emax (without co-corrector) was above 150%.

With `COc1ccc(C(C)(C)OC)cc1C1(C(=O)NS(=O)(=O)c2cccc3ncccc23)CC1` [Example I-52, 1-[2-methoxy-5-(2-methoxypropan-2-yl)phenyl]-N-(quinoline-5-sulfonyl)cyclopropane-1-carboxamide], the negative-log EC50 (pEC50) was above 5.52 under setting [1] and above 5.52 under setting [2]. Further, the “Maximum % activity (with co-corrector)” value (with co-corrector) is “+++ (≥350)”. Also, the Emax (without co-corrector) is above 150%.

For `COc1ccc(C)cc1C1(C(=O)NS(=O)(=O)c2cccc3[nH]ncc23)CC1` [Example I-53, N-(1H-indazole-4-sulfonyl)-1-(2-methoxy-5-methylphenyl)cyclopropane-1-carboxamide], the pEC50 is 5.00 to 5.52 under setting [1] and above 5.52 under setting [2]. The “Maximum % activity (with co-corrector)” value (with co-corrector) is recorded as “+++ (≥350)”. Further, the Emax (without co-corrector) was above 150%.

Regarding `COc1ccc(C2CCC2)cc1C1(C(=O)NS(=O)(=O)c2cccc3c2CCN3)CC1` [Example I-54, 1-(5-cyclobutyl-2-methoxyphenyl)-N-(2,3-dihydro-1H-indole-4-sulfonyl)cyclopropane-1-carboxamide], the pEC50 by setting is: under setting [1], above 5.52; under setting [2], above 5.52. Also, the “Maximum % activity (with co-corrector)” value (with co-corrector) is “+++ (≥350)”. Moreover, the Emax (without co-corrector) is above 150%.

With `COc1ccc(C2CCC2)cc1C1(C(=O)NS(=O)(=O)c2cccc3[nH]ccc23)CC1` [Example I-55, 1-(5-cyclobutyl-2-methoxyphenyl)-N-(1H-indole-4-sulfonyl)cyclopropane-1-carboxamide], the pEC50 reads like this: under setting [1], above 5.52; under setting [2], above 5.52. For the same compound, the “Maximum % activity (with co-corrector)” value (with co-corrector) is given as “+++ (≥350)”. The Emax (without co-corrector) is above 150%.

Turning to `COc1ccc(C2CCC2)cc1C1(C(=O)NS(=O)(=O)c2cccc3[nH]ncc23)CC1` [Example I-56, 1-(5-cyclobutyl-2-methoxyphenyl)-N-(1H-indazole-4-sulfonyl)cyclopropane-1-carboxamide], the pEC50 is above 5.52 under setting [1] and above 5.52 under setting [2]. Further, the “Maximum % activity (with co-corrector)” value (with co-corrector) is “+++ (≥350)”. Besides, the Emax (without co-corrector) is above 150%.

For `CN(C)c1ncc(C(F)(F)F)cc1C1(C(=O)NS(=O)(=O)c2cccc3ncccc23)CC1` [Example I-57, 1-[2-(dimethylamino)-5-(trifluoromethyl)pyridin-3-yl]-N-(quinoline-5-sulfonyl)cyclopropane-1-carboxamide], the pEC50 under setting [1] was above 5.52 and the negative logarithm of the EC50 (pEC50) under setting [2] is above 5.52. The “Maximum % activity (with co-corrector)” value (with co-corrector) is on record as “+++ (≥350)”. In addition, the Emax (without co-corrector) was above 150%.

Turning to `COc1ccc(C2CCC2)cc1C1(C(=O)NS(=O)(=O)c2cccc3c2ccn3C)CC1` [Example I-58, 1-(5-cyclobutyl-2-methoxyphenyl)-N-(1-methyl-1H-indole-4-sulfonyl)cyclopropane-1-carboxamide], the pEC50 is 5.00 to 5.52 under setting [1] and above 5.52 under setting [2]. In addition, the “Maximum % activity (with co-corrector)” value (with co-corrector) is given as “+++ (≥350)”. The Emax (without co-corrector) was above 150%.

Regarding `COc1ccc(C2CCC2)cc1C1(C(=O)NS(=O)(=O)c2cccc3ccn(C)c23)CC1` [Example I-59, 1-(5-cyclobutyl-2-methoxyphenyl)-N-(1-methyl-1H-indole-7-sulfonyl)cyclopropane-1-carboxamide], the pEC50 was above 5.52 under setting [1] and above 5.52 under setting [2]. For the same compound, the “Maximum % activity (with co-corrector)” value (with co-corrector) was “+++ (≥350)”. Under “without co-corrector”, the Emax is above 150%.

With `COc1ccc(C2CCC2)cc1C1(C(=O)NS(=O)(=O)c2cccc3cnn(C)c23)CC1` [Example I-60, 1-(5-cyclobutyl-2-methoxyphenyl)-N-(1-methyl-1H-indazole-7-sulfonyl)cyclopropane-1-carboxamide], the pEC50 is, setting by setting: under setting [1], above 5.52; under setting [2], above 5.52. Also, the “Maximum % activity (with co-corrector)” value (with co-corrector) was “+++ (≥350)”. For the same compound, the Emax (without co-corrector) is above 150%.
